# Values quoted from earlier work as cited in patent publication US20210052557A1, “COMPOSITIONS FOR TREATING INFECTIVE ARTERIAL DISEASES AND RELATED CONDITIONS” (CENTRE FOR DIGESTIVE DISEASES, priority 2018, published 2021).
# Experiments:
# [1] = test system: Chlamydophila pneumoniae (Cpn); details: single antibiotic given to patients
# [2] = test system: Chlamydophila pneumoniae (Cpn)
SMILES,clinical benefit as monotherapy [1],activity against Chlamydophila pneumoniae (Cpn) [2]
CC[C@H]1OC(=O)[C@H](C)[C@@H](O[C@H]2C[C@@](C)(OC)[C@@H](O)[C@H](C)O2)[C@H](C)[C@@H](O[C@@H]2O[C@H](C)C[C@H](N(C)C)[C@H]2O)[C@](C)(O)C[C@@H](C)CN(C)[C@H](C)[C@@H](O)[C@]1(C)O [Azithromycin],"some benefit, but this was not sustained",
CN(C)c1cc(NC(=O)CNC(C)(C)C)c(O)c2c1C[C@H]1C[C@H]3[C@H](N(C)C)C(O)=C(C(N)=O)C(=O)[C@@]3(O)C(O)=C1C2=O [Tigecycline],,good activity
CC[C@H]1OC(=O)[C@H](C)C(=O)[C@H](C)[C@@H](O[C@@H]2O[C@H](C)C[C@H](N(C)C)[C@H]2O)[C@](C)(OC/C=C/c2cnc3ccccc3c2)C[C@@H](C)C(=O)[C@H](C)[C@H]2NC(=O)O[C@@]21C [cethromycin],,most active of the macrolides
CC[C@H]1OC(=O)[C@H](C)[C@@H](O[C@H]2C[C@@](C)(OC)[C@@H](O)[C@H](C)O2)[C@H](C)[C@@H](O[C@@H]2O[C@H](C)C[C@H](N(C)C)[C@H]2O)[C@](C)(O)C[C@@H](C)/C(=N\OCOCCOC)[C@H](C)[C@@H](O)[C@]1(C)O [roxithromycin],Benefit,
